According to US11078228B2, “Ectonucleotidase inhibitors and methods of use thereof” (Calithera Biosciences, Inc., priority 2018, dated 2021):

Target: T1, recombinant CD73 (Homo sapiens (Human), UniProt P21589)
Assay: Assay 2: Inhibition of the CD73 enzyme in vitro (0.05 nM CD73, 1 hour 37° C., Malachite Green)
Assay type: biochemical
Settings: 0.05 nM CD73, 50 μM AMP, 1 hour at 37° C.
Outline: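 Free phosphate was quantified from absorbance at 630 nm against a phosphate standard curve. This was read 5 min after Malachite Green was added at room temperature. Beforehand, the recombinant soluble enzyme reacted for 1 hour at 37° C.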

T1 sequence (P21589 27-547): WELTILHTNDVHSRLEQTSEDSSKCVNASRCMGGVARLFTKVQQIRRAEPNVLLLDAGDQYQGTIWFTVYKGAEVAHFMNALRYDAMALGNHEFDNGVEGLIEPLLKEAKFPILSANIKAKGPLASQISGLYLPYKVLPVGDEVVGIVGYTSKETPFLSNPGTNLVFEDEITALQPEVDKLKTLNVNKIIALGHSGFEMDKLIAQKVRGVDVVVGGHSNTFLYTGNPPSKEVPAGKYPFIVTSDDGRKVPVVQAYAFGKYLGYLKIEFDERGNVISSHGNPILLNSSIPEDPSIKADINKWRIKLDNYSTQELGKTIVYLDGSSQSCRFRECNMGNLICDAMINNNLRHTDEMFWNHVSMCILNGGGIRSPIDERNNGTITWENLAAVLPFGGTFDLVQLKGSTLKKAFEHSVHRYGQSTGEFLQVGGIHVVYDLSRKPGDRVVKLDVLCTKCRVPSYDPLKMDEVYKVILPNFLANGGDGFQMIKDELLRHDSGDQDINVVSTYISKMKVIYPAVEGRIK

Structure (SMILES)	IC50 [nM]
C#C[C@@]1(O)[C@@H](COC(Cc2ccc(N3CCCN(CCC)C3=O)cc2)(C(=O)O)C(=O)O)O[C@@H](n2cnc3c(N)nc(Cl)nc32)[C@@H]1O [Example 152, 2-(((2R,3S,4R,5R)-5-(6-amino-2-chloro-9H-purin-9-yl)-3-ethynyl-3,4-dihydroxytetrahydrofuran-2-yl)methoxy)-2-(4-(2-oxo-3-propyltetrahydropyrimidin-1 (2H)-yl)benzyl)malonic acid]	0.05
C#C[C@@]1(O)[C@@H](COC(Cc2ccc(N3CCCN(C)C3=O)cc2)(C(=O)O)C(=O)O)O[C@@H](n2cnc3c(NCC4CC4)nc(Cl)nc32)[C@@H]1O [Example 150, 2-(((2R,3S,4R,5R)-5-(2-chloro-6-((cyclopropylmethyl)amino)-9H-purin-9-yl)-3-ethynyl-3,4-dihydroxytetrahydrofuran-2-yl)methoxy)-2-(4-(3-methyl-2-oxotetrahydropyrimidin-1 (2H)-yl)benzyl)malonic acid]	0.16
C#C[C@@]1(O)[C@@H](COC(Cc2ccccc2)(C(=O)O)C(=O)O)O[C@@H](n2cnc3c(N4CCC4CO)nc(Cl)nc32)[C@@H]1O (stereo partly drawn) [Example 42, 2-benzyl-2-(((2R,3S,4R,5R)-5-(2-chloro-6-(2-(hydroxymethyl)azetidin-1-yl)-9H-purin-9-yl)-3-ethynyl-3,4-dihydroxytetrahydrofuran-2-yl)methoxy)malonic acid]	1
C#C[C@@]1(O)[C@@H](COC(Cc2ccccc2)(C(=O)O)C(=O)O)O[C@@H](n2cnc3c(NC4CC4)nc(Cl)nc32)[C@@H]1O [Example 83, 2-benzyl-2-(((2R,3S,4R,5R)-5-(2-chloro-6-(cyclopropylamino)-9H-purin-9-yl)-3-ethynyl-3,4-dihydroxytetrahydrofuran-2-yl)methoxy)malonic acid]	1
C#C[C@@]1(O)[C@@H](COC(Cc2ccsc2)(C(=O)O)C(=O)O)O[C@@H](n2cnc3c(NCCO)nc(Cl)nc32)[C@@H]1O [Example 32, 2-(((2R,3S,4R,5R)-5-(2-chloro-6-((2-hydroxyethyl)amino)-9H-purin-9-yl)-3-ethynyl-3,4-dihydroxytetrahydrofuran-2-yl)methoxy)-2-(thiophen-3-ylmethyl)malonic acid]	3
C#C[C@@]1(O)[C@@H](COC(Cc2ccccc2)(C(=O)O)C(=O)O)O[C@@H](n2cnc3c(N(C)C)nc(Cl)nc32)[C@@H]1O [Example 31, 2-benzyl-2-(((2R,3S,4R,5R)-5-(2-chloro-6-(dimethylamino)-9H-purin-9-yl)-3-ethynyl-3,4-dihydroxytetrahydrofuran-2-yl)methoxy)malonic acid]	2
C#C[C@@]1(O)[C@@H](COC(Cc2ccc(N3CCCNC3=O)cc2)(C(=O)O)c2cscn2)O[C@@H](n2cnc3c(NC(C)C)nc(Cl)nc32)[C@@H]1O (stereo partly drawn) [Example 176, 2-(((2R,3S,4R,5R)-5-(2-chloro-6-(isopropylamino)-9H-purin-9-yl)-3-ethynyl-3,4-dihydroxytetrahydrofuran-2-yl)methoxy)-3-(4-(2-oxotetrahydropyrimidin-1(2H)-yl)phenyl)-2-(thiazol-4-yl)propanoic acid]	5
C#C[C@@]1(O)[C@@H](COC(Cc2ccc(N3CCCN(C)C3=O)cc2)(C(=O)O)C(=O)O)O[C@@H](n2cnc3c(NC(C)C)nc(Cl)nc32)[C@@H]1O [Example 151, 2-(((2R,3S,4R,5R)-5-(2-chloro-6-(isopropylamino)-9H-purin-9-yl)-3-ethynyl-3,4-dihydroxytetrahydrofuran-2-yl)methoxy)-2-(4-(3-methyl-2-oxotetrahydropyrimidin-1(2H)-yl)benzyl)malonic acid]	0.25
C#C[C@@]1(O)[C@@H](COC(Cc2ccccc2)(C(=O)O)C(=O)O)O[C@@H](n2cnc3c(NC[C@H](C)O)nc(Cl)nc32)[C@@H]1O [Example 36, 2-benzyl-2-(((2R,3S,4R,5R)-5-(2-chloro-6-(((S)-2-hydroxypropyl)amino)-9H-purin-9-yl)-3-ethynyl-3,4-dihydroxytetrahydrofuran-2-yl)methoxy)malonic acid]	4
C#C[C@@]1(O)[C@@H](COC(Cc2ccccc2)(C(=O)O)C(=O)O)O[C@@H](n2cnc3c(N[C@@H](C)c4ccccc4)nc(Cl)nc32)[C@@H]1O [Example 63, 2-benzyl-2-(((2R,3S,4R,5R)-5-(2-chloro-6-(((S)-1-phenylethyl)amino)-9H-purin-9-yl)-3-ethynyl-3,4-dihydroxytetrahydrofuran-2-yl)methoxy)malonic acid]	1
C#C[C@@]1(O)[C@@H](COC(Cc2ccccc2)(C(=O)O)C(=O)O)O[C@@H](n2cnc3c(N(CC)CC)nc(Cl)nc32)[C@@H]1O [Example 96, 2-benzyl-2-(((2R,3S,4R,5R)-5-(2-chloro-6-(diethylamino)-9H-purin-9-yl)-3-ethynyl-3,4-dihydroxytetrahydrofuran-2-yl)methoxy)malonic acid]	3
C#C[C@@]1(O)[C@@H](COC(Cc2ccccc2)(C(=O)O)C(=O)OCC)O[C@@H](n2cnc3c(NCc4ccccc4Cl)nc(Cl)nc32)[C@@H]1O (stereo partly drawn) [Example 108, 2-benzyl-2-(((2R,3S,4R,5R)-5-(2-chloro-6-((2-chlorobenzyl)amino)-9H-purin-9-yl)-3-ethynyl-3,4-dihydroxytetrahydrofuran-2-yl)methoxy)-3-ethoxy-3-oxopropanoic acid]	3
C#C[C@@]1(O)[C@@H](COC(Cc2ccccc2)(C(=O)O)C(=O)O)O[C@@H](n2cnc3c(N(C)CC4CC4)nc(Cl)nc32)[C@@H]1O [Example 75, 2-benzyl-2-(((2R,3S,4R,5R)-5-(2-chloro-6-((cyclopropylmethyl)-(methyl)amino)-9H-purin-9-yl)-3-ethynyl-3,4-dihydroxytetrahydrofuran-2-yl)methoxy)malonic acid]	0.6
C#C[C@@]1(O)[C@@H](COC(Cc2cc(C)on2)(C(=O)O)C(=O)O)O[C@@H](n2cnc3c(NCc4ccc(F)cc4)nc(Cl)nc32)[C@@H]1O [Example 111, 2-(((2R,3S,4R,5R)-5-(2-chloro-6-((4-fluorobenzyl)amino)-9H-purin-9-yl)-3-ethynyl-3,4-dihydroxytetrahydrofuran-2-yl)methoxy)-2-((5-methylisoxazol-3-yl)methyl)malonic acid]	2670

Target: T1, recombinant CD73
Assay: Assay 1: Inhibition of the CD73 enzyme in vitro (0.5 nM CD73, 30 min room temperature, Malachite Green)
Assay type: biochemical
Settings: 0.5 nM CD73, 30 minutes at room temperature
Protocol: For measurements of soluble CD73 enzyme activity, recombinant CD73 was obtained from R&D Systems, Cat. No. 5795-EN-010. […] Reactions were allowed to proceed for 30 minutes at room temperature before the addition of 100 μL Malachite Green (Cell Signaling Technology, Cat. No. 12776). After 5 minutes at room temperature, absorbance at 630 nm was determined on a microplate spectrophotometer. The concentration of inorganic phosphate was determined using a phosphate standard curve.

Structure (SMILES)	IC50 [nM]
C[C@@]1(O)[C@@H](CO[C@@](Cc2ccc(-c3ccccc3)cc2)(C(=O)O)c2cscn2)O[C@@H](n2cnc3c(N)nc(Cl)nc32)[C@@H]1O (single isomer, unassigned) [Example 199]	5760
C#C[C@@]1(O)[C@@H](CO[C@@](Cc2ccccc2)(C(=O)O)c2nnn[nH]2)O[C@@H](n2cnc3c(N)nc(Cl)nc32)[C@@H]1O [Example 192, (R)-2-(((2R,3S,4R,5R)-5-(6-amino-2-chloro-9H-purin-9-yl)-3-ethynyl-3,4-dihydroxytetrahydrofuran-2-yl)methoxy)-3-phenyl-2-(1H-tetrazol-5-yl)propanoic acid]	25
C#C[C@@]1(O)[C@@H](COC(Cc2ccsc2)(C(=O)O)C(=O)O)O[C@@H](n2cnc3c(N)nc(Cl)nc32)[C@@H]1O [Example 24, 2-(((2R,3S,4R,5R)-5-(6-amino-2-chloro-9H-purin-9-yl)-3-ethynyl-3,4-dihydroxytetrahydrofuran-2-yl)methoxy)-2-(thiophen-3-ylmethyl)malonic acid]	1.8
